For this series, the system named is PC12 cells. The series is described as follows: NGF-dependent survival of PC12 cells. In kind it is cell-based, rat.

On to `[Zn+2]` [Zn^2+], for which the “NGF-mediated survival of PC12 cells” value (100 μM, serum-free, CaEDTA together with Zn2+) is “reduced signifcantly”. Besides, the “Antagonism of NGF-dependent survival” value (high (1 nM) or low (50 pM) NGF) is on record as “ability to antagonize the NGF-dependant survival”. Also, for the setting “rat, pc12 cells, 100 µM”, the “Survival @ 50 pM NGF” value was determined as 67 ± 19 % control and the “Survival @ 1 nM NGF” value is given as 84 ± 39 % control.

The values are drawn from patent publication US6291247A, “Methods of screening for factors that disrupt neurotrophin conformation and reduce neurotrophin biological activity” (priority 1996, dated 2001).
